Test systems include HCT-15 colon; SF-295 CNS; A549 NSCLC; SR leukemia; 786-0 renal; HCC-2998 colon; MALME-3M melanoma; SK-MEL-2 melanoma.
Common to all, as to assay: DTP human tumour cell line panel, 48 h

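Growth conditions: 96-well plates. Treatment: test compound, 48 hours, 5 concentrations. Analysis: linear interpolation between bracketing concentrations; unreached endpoints set to highest concentration. Abbreviation: GI50, concentration required for 50% inhibition of growth. TGI: total growth inhibition.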

On to `CN(C)C/C=C/C(=O)Nc1cc2c(Nc3cccc(Cl)c3F)ncnc2cc1OCCOC(F)F`, for which the GI50 in the assay with HCT-15 colon is 1.08 µM; with SF-295 CNS it was 2.82 µM; with A549 NSCLC it was 1.24 µM; in the assay with SR leukemia, 1180 nM; with 786-0 renal it was 0.695 µM; in the assay on HCC-2998 colon, 2100 nM. Moreover, the values for the GI50 in the assay with MALME-3M melanoma and in the assay with SK-MEL-2 melanoma were 1640 nM and 1940 nM, respectively. The TGI in the assay on SF-295 CNS stood at 15.6 µM; with A549 NSCLC it was 12.7 µM; in the assay on SR leukemia, 5.22 µM; in the assay on 786-0 renal, 9.77 µM; in the assay with HCC-2998 colon, 10.9 µM; with MALME-3M melanoma, 6.47 µM. The same compound gave a TGI in the assay with SK-MEL-2 melanoma of 6.27 µM.

`OCC1OC(n2cnc3c(NCc4ccccc4O)ncnc32)C(O)C1O` (stereo not drawn): the GI50 is 0.432 µM in the assay on HCT-15 colon; 6.48 µM in the assay with SF-295 CNS; 26.5 µM in the assay on A549 NSCLC; 413 nM in the assay with SR leukemia; 0.571 µM with 786-0 renal; 1760 nM with HCC-2998 colon. For the same compound, the GI50 in the assay on MALME-3M melanoma is 2990 nM; with SK-MEL-2 melanoma it was 328 nM. In addition, the TGI was > 56.7 µM in the assay with SF-295 CNS; > 100 µM with A549 NSCLC; > 29.3 µM in the assay with SR leukemia; 7.7 µM in the assay on 786-0 renal; 8.42 µM with HCC-2998 colon; > 75.5 µM with MALME-3M melanoma. The compound also had a TGI in the assay with SK-MEL-2 melanoma of 1.83 µM.

Take `Oc1cc(O)c2c(c1)OC(c1ccc(O)c(O)c1)C(O)C2c1c(O)cc(O)c2c1OC(c1ccc(O)c(O)c1)C(O)C2` (stereo not drawn): the TGI in the assay on HCT-15 colon, in the assay with SF-295 CNS, with A549 NSCLC, in the assay with 786-0 renal, in the assay on MALME-3M melanoma and in the assay on SK-MEL-2 melanoma was > 100 µM each time.

`Nc1cc(N)c2nc(-c3ccccc3)c(NCc3ccc(Cl)c(Cl)c3)nc2c1`: the GI50 in the assay on HCT-15 colon is 4.64 µM; with SF-295 CNS, 15.5 µM; in the assay with A549 NSCLC, 10.8 µM; in the assay with SR leukemia, 1630 nM; in the assay on 786-0 renal, 13.1 µM; with MALME-3M melanoma, 3410 nM. For the same compound, the GI50 with SK-MEL-2 melanoma was 1910 nM. For the same compound, the TGI in the assay with HCT-15 colon was > 100 µM; in the assay with SF-295 CNS, 37.2 µM; in the assay on A549 NSCLC, 27.4 µM; in the assay on SR leukemia it was 5.97 µM; with 786-0 renal it was 30.4 µM; in the assay with MALME-3M melanoma, 13.8 µM. Moreover, the TGI in the assay with SK-MEL-2 melanoma is 4.26 µM.

For the compound `COc1ccc(NC(=O)c2cccc(C3CCc4c(cc(OC)c(OC)c4OC)O3)c2)cc1` (stereo not drawn), the GI50 in the assay on HCT-15 colon was 1.96 µM; in the assay on A549 NSCLC, 3.57 µM; in the assay on SR leukemia, 419 nM; in the assay with 786-0 renal it was 4.18 µM; in the assay on HCC-2998 colon, 6010 nM; in the assay with MALME-3M melanoma it was 2690 nM. Also, the GI50 in the assay with SK-MEL-2 melanoma was 2950 nM. Besides, the concentration for total growth inhibition (TGI) with HCT-15 colon, in the assay with A549 NSCLC, with SR leukemia, with 786-0 renal, with HCC-2998 colon and in the assay with MALME-3M melanoma was > 100 µM throughout. In the assay with SK-MEL-2 melanoma, this compound came in with a TGI of 8.79 µM.

Consider `O=C(O)c1cc(Cl)cc(Cc2cc(Cl)cc(C(=O)O)c2O)c1O`, for which the total growth inhibition concentration (TGI) in the assay with HCT-15 colon, with SF-295 CNS, with A549 NSCLC, in the assay with SR leukemia, in the assay on 786-0 renal and in the assay with MALME-3M melanoma was > 100 µM in each case. Moreover, in the assay on SK-MEL-2 melanoma, the TGI was > 100 µM.

As for `Cc1cn(C2CC(O)C(COC(N)=O)O2)c(=O)[nH]c1=O` (stereo not drawn), the TGI in the assay on HCT-15 colon, in the assay with SF-295 CNS, in the assay on A549 NSCLC, in the assay on SR leukemia, in the assay on 786-0 renal and in the assay with MALME-3M melanoma was > 100 µM in each case. The concentration for total growth inhibition (TGI) in the assay with SK-MEL-2 melanoma is > 100 µM.

For `COc1cc(NCCC2CCCCN2)c2ncccc2c1OC` (stereo not drawn), the GI50 in the assay on HCT-15 colon was 21.2 µM; in the assay with SF-295 CNS, 10.4 µM; in the assay on A549 NSCLC it was 19.4 µM; in the assay on 786-0 renal, 14.5 µM; in the assay on HCC-2998 colon it was 16900 nM; with MALME-3M melanoma it was 14200 nM. In the assay on SK-MEL-2 melanoma, the GI50 was 3130 nM. The TGI with HCT-15 colon worked out at 85.5 µM; in the assay with SF-295 CNS it was 31 µM; with A549 NSCLC, 41.9 µM; in the assay on 786-0 renal it was 36.9 µM; with HCC-2998 colon, 31.8 µM; with MALME-3M melanoma, 30 µM. This compound had a TGI in the assay on SK-MEL-2 melanoma of 9.07 µM.

As to `N/C(=N/S(=O)(=O)c1cc(C(=O)Nc2ccc(F)cc2)c(Cl)cc1SCc1ccccc1)Nc1ccccc1O`, the GI50 in the assay with HCT-15 colon was 37.1 µM; in the assay with SF-295 CNS, 1.95 µM; in the assay on A549 NSCLC, 2.36 µM; in the assay with 786-0 renal, 2.3 µM; in the assay with HCC-2998 colon, 2860 nM; in the assay on SK-MEL-2 melanoma, 2130 nM. Also, the TGI in the assay on HCT-15 colon is > 100 µM; in the assay on SF-295 CNS, 3.66 µM; in the assay on A549 NSCLC, 4.71 µM; in the assay with 786-0 renal, 6.01 µM; in the assay with HCC-2998 colon it was 7.34 µM; with SK-MEL-2 melanoma it was 4.02 µM.

With `Cc1ccc(/C(=C/C=C(C#N)C#N)Sc2nc3ccccc3s2)cc1`, the GI50 in the assay on SF-295 CNS was 5.77 µM; with A549 NSCLC it was 19.8 µM; in the assay on SR leukemia, > 100000 nM; with 786-0 renal it was 2.43 µM; in the assay on MALME-3M melanoma, 2520 nM; in the assay on SK-MEL-2 melanoma it was 4950 nM. Moreover, the TGI in the assay with SF-295 CNS was 21 µM; in the assay on A549 NSCLC, 45.5 µM; with SR leukemia it was > 100 µM; with 786-0 renal, 6.78 µM; with MALME-3M melanoma, 6.57 µM; in the assay with SK-MEL-2 melanoma, 27.1 µM.

On to `CC(=O)O[C@H]1CC[C@]2(C)C3C(=O)C[C@]4(C)[C@@H](C(C)CCC(=O)O)CC[C@@]4(C)[C@@H]3CC[C@H]2C1(C)C` (stereo partly drawn), for which the GI50 in the assay on HCT-15 colon was 11.7 µM; with SF-295 CNS it was 17.9 µM; in the assay on A549 NSCLC, 15.6 µM; with SR leukemia, 16600 nM; in the assay with 786-0 renal it was 20.7 µM; with SK-MEL-2 melanoma, 45800 nM. The total growth inhibition concentration (TGI) with HCT-15 colon is 46.9 µM; in the assay with SF-295 CNS, > 50 µM; in the assay with A549 NSCLC, > 50 µM; with SR leukemia, > 50 µM; in the assay on 786-0 renal, > 50 µM; in the assay on SK-MEL-2 melanoma, > 50 µM.

A word on the GI50: it is the concentration giving 50% growth inhibition. Broadly, the TGI is the concentration giving total growth inhibition.

Source of the values: PubChem BioAssay (NCI).
